Measured values published in patent US5780590A, “Antithrombotic azacycloalkylalkanoyl peptides and pseudopeptides” (Rhone-Poulenc Rorer Pharmaceuticals Inc., priority 1996, dated 1998).

Assays:
[1] = system: ADP-induced platelet aggregation in platelet rich plasma; experiment: Inhibition of ADP-Induced ex-vivo Platelet Aggregation; type: in vivo, mongrel dogs; conditions: dog, dose 5 mg/kg oral
Source text: The Platelet Aggregation Assay is based on that described in Blood 66 (4), 946-952 (1985). The Fibrinogen-Binding Assay is essentially that of Ruggeri, Z. M., et al., Proc. Natl. Acad. Sci. USA 83, 5708-5712 (1986) and Plow, E. F., et al., Proc. Natl. Acad. Sci., USA 82, 8057-8061 (1985). The Inhibition of ADP-Induced ex-vivo Platelet Aggregation assay is based on that of Zucker, "Platelet Aggregation Measured by the Photoelectric Method", Methods in Enzymology 169, 117-133 (1989).
Inhibition of ADP-Induced ex-vivo Platelet Aggregation
Control blood samples are obtained 5-10 minutes prior to administration of a test compound in mongrel dogs weighing from 10 to 20 Kg. The compound is administered intragasticly, via aqueous gavage, or orally, via gelatin capsule. […]
The blood samples are centrifuged at 1000 rpm for 10 minutes to obtain platelet rich plasma (PRP). […] Platelet count in the PRP is determined by using a Coulter Counter (Coulter Electronics, Hialeah, Fla.). […] Platelet aggregation is monitored spectrophotometrically utilizing a light transmission aggregometer (Bio/Data Platelet Aggregation Profiler, Model PAP-4, Bio/Data Corp., Horsham, Pa.). For the testing of a compound, the rate of change (slope) of light transmittance and the maximum light transmittance (maximum aggregation) is recorded in duplicate. […]

[2] = Moisture sorption isotherms; type: physicochemical; conditions: 25° C. (FIG. 9)
Procedure: Moisture Sorption Isotherms of hygroscopic and non-hygroscopic crystalline forms of N-[N-[N-(4-piperdin-4-yl)butanoyl)-N-ethylglycyl]-(L)-aspartyl]-(L)-β-cyclohexylalanine amide are obtained on a VTI MB300G moisture balance. The experiments are conducted either by subjecting approximately 15 mg of the subject crystalline form to increasing and decreasing steps of % RH and following the weight gain (at each equilibrium step) as a function of % RH (FIG. 9) or by holding the subject crystalline form at constant humidity and following the weight gain as a function of time.

[3] = Isothermal microcalorimetry of solid state form conversion; type: physicochemical; conditions: 60° C. (FIG. 8)
Procedure: Isothermal microcalorimetry experiments on hygroscopic and non-hygroscopic crystalline forms of N-[N-[N-(4-piperdin-4-yl)butanoyl)-N-ethylglycyl]-(L)-aspartyl]-(L)-β-cyclohexylalanine amide are performed on a Thermometric® Thermal Activity Monitor (TAM). Solid state conversions of the different crystalline forms are studied by exposing the forms to different humidities or solvent vapors at different temperatures. The saturated salt solutions used to obtain different humidities were: KCl (80% RH), NaCl (75% RH), and NaBr (65% RH). Approximately 100 mg quantities of the forms are weighed into a TAM glass ampule and a microhygrostate containing a saturated salt solution (with excess solid) or an organic solvent is placed inside the ampule. The ampule is sealed, equilibrated to the temperature of the experiment, and lowered into the measuring position in the TAM. An identical system containing washed sea sand, in place of the form subject to testing, is placed on the reference side. Output power ([…]) is measured as a function of time (FIGS. 6-8).

Row | SMILES | % Inhibition of ex-vivo Platelet Aggregation After Oral Administration, 24 h [1] [%] | % weight gain vs. % RH [2] | conversion to non-hygroscopic form at 100% RH [3]
1 | CCN(CC(=O)N[C@@H](CC(=O)O)C(=O)N[C@@H](CC1CCCCC1)C(N)=O)C(=O)CCCC1CCNCC1 [Example 15] | 5 |  | 
2 | CCN(CC(=O)N[C@@H](CC(=O)O)C(=O)N[C@@H](CC1CCCCC1)C(N)=O)C(=O)CCCC1CCNCC1 [hygroscopic form] |  | picks up more water than the non-hygroscopic form as the RH increases | without the liquification
